In US10597388B2, “Pyridazinone herbicides” (FMC CORPORATION, priority 2014, dated 2020):

Legend:
Assay in all cases: Test D controlled growth environment herbicide test, pre- and postemergence
Format in all cases: in vivo
[1] = tested on: buckwheat, wild (wild buckwheat, Polygonum convolvulus)
Procedure, shortened: (§1)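 Species sown in silt loam and sprayed preemergence, or grown in peat-based medium to 2–18 cm (1- to 4-leaf stage) and sprayed postemergence, with compounds in non-phytotoxic solvent plus surfactant. Visual injury scored versus controls after 14–21 d in a controlled environment, 0 (no effect) to 100 (complete control).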

[2] = tested on: galium (catchweed bedstraw, Galium aparine)
Procedure, shortened: as §1

[3] = tested on: ryegrass, Italian (Italian ryegrass, Lolium multiflorum)
Procedure, shortened: as §1

[4] = tested on: blackgrass (Alopecurus myosuroides)
Procedure, shortened: as §1

[5] = tested on: kochia (Kochia scoparia)
Procedure, shortened: as §1

[6] = tested on: pigweed (Amaranthus retroflexus)
Procedure, shortened: as §1

[7] = tested on: wheat, winter (winter wheat, Triticum aestivum)
Procedure, shortened: as §1

[8] = tested on: canarygrass (Phalaris minor)
Procedure, shortened: as §1

[9] = tested on: chickweed (common chickweed, Stellaria media)
Procedure, shortened: as §1

[10] = tested on: bluegrass (annual bluegrass, Poa annua)
Procedure, shortened: as §1

[11] = tested on: Russian thistle (Salsola kali)
Procedure, shortened: as §1

[12] = tested on: field poppy (Papaver rhoeas)
Procedure, shortened: as §1

[13] = tested on: foxtail, green (green foxtail, Setaria viridis)
Procedure, shortened: as §1

[14] = Postemergence, 31 g ai/ha, scale 0 to 100 (0 no effect, 100 complete control)
[15] = Postemergence, 125 g ai/ha, visual rating on scale 0 (no effect) to 100 (complete control), 14 to 21 d
[16] = Postemergence, 250 g ai/ha, scale 0 to 100 (0 no effect, 100 complete control)
[17] = Preemergence, 62 g ai/ha, scale 0 to 100 (0 no effect, 100 complete control)
[18] = Preemergence, 125 g ai/ha, scale 0 to 100 (0 no effect, 100 complete control)
[19] = Preemergence, 250 g ai/ha, scale 0 to 100 (0 no effect, 100 complete control)
[20] = postemergence, 62 g ai/ha, scale 0 to 100, 0 no effect, 100 complete control

Cc1ccc2ccc(C)c(-c3c(O)c(C)nn(C)c3=O)c2c1 [Compound 60]
Buckwheat, Wild plant response rating [1, 14]: 90
Plant response rating, Buckwheat, Wild [1, 15]: 100
Plant response rating, Buckwheat, Wild [1, 16]: 100
Plant response rating (scale of 0 to 100), Buckwheat, Wild ([1]; Preemergence, 31 g ai/ha): 0
Plant response rating, Buckwheat, Wild [1, 17]: 25
Plant response rating, Buckwheat, Wild [1, 18]: 50
Plant response rating, Buckwheat, Wild [1, 19]: 60
Plant response rating, Buckwheat, Wild [1, 20]: 95
Galium plant response rating [2, 14]: 100
Plant response rating, Galium [2, 15]: 100
Plant response rating, Galium [2, 16]: 100
Plant response rating (scale of 0 to 100), Galium ([2]; Preemergence, 31 g ai/ha): 75
Plant response rating, Galium [2, 17]: 85
Plant response rating, Galium [2, 18]: 95
Plant response rating, Galium [2, 19]: 100
Plant response rating, Galium [2, 20]: 100
Ryegrass, Italian plant response rating [3, 14]: 80
Plant response rating, Ryegrass, Italian [3, 15]: 90
Plant response rating, Ryegrass, Italian [3, 16]: 95
Plant response rating (scale of 0 to 100), Ryegrass, Italian ([3]; Preemergence, 31 g ai/ha): 100
Plant response rating, Ryegrass, Italian [3, 17]: 100
Plant response rating, Ryegrass, Italian [3, 18]: 100
Plant response rating, Ryegrass, Italian [3, 19]: 100
Plant response rating, Ryegrass, Italian [3, 20]: 90
Blackgrass plant response rating [4, 14]: 75
Plant response rating, Blackgrass [4, 15]: 85
Plant response rating, Blackgrass [4, 16]: 90
Plant response rating (scale of 0 to 100), Blackgrass ([4]; Preemergence, 31 g ai/ha): 90
Plant response rating, Blackgrass [4, 17]: 95
Plant response rating, Blackgrass [4, 18]: 100
Plant response rating, Blackgrass [4, 19]: 100
Plant response rating, Blackgrass [4, 20]: 80
Kochia plant response rating [5, 14]: 70
Plant response rating, Kochia [5, 15]: 90
Plant response rating, Kochia [5, 16]: 95
Plant response rating (scale of 0 to 100), Kochia ([5]; Preemergence, 31 g ai/ha): 15
Plant response rating, Kochia [5, 17]: 20
Plant response rating, Kochia [5, 18]: 60
Plant response rating, Kochia [5, 19]: 75
Plant response rating, Kochia [5, 20]: 85
Pigweed plant response rating [6, 14]: 75
Plant response rating, Pigweed [6, 15]: 100
Plant response rating, Pigweed [6, 16]: 100
Plant response rating (scale of 0 to 100), Pigweed ([6]; Preemergence, 31 g ai/ha): 100
Plant response rating, Pigweed [6, 17]: 100
Plant response rating, Pigweed [6, 18]: 100
Plant response rating, Pigweed [6, 19]: 100
Plant response rating, Pigweed [6, 20]: 95
Wheat, Winter plant response rating [7, 14]: 25
Plant response rating, Wheat, Winter [7, 15]: 35
Plant response rating, Wheat, Winter [7, 16]: 40
Plant response rating (scale of 0 to 100), Wheat, Winter ([7]; Preemergence, 31 g ai/ha): 10
Plant response rating, Wheat, Winter [7, 17]: 35
Plant response rating, Wheat, Winter [7, 18]: 55
Plant response rating, Wheat, Winter [7, 19]: 55
Plant response rating, Wheat, Winter [7, 20]: 30
Canarygrass plant response rating [8, 14]: 80
Plant response rating, Canarygrass [8, 15]: 85
Plant response rating, Canarygrass [8, 16]: 90
Plant response rating (scale of 0 to 100), Canarygrass ([8]; Preemergence, 31 g ai/ha): 90
Plant response rating, Canarygrass [8, 17]: 95
Plant response rating, Canarygrass [8, 18]: 95
Plant response rating, Canarygrass [8, 19]: 100
Plant response rating, Canarygrass [8, 20]: 80
Chickweed plant response rating [9, 14]: 85
Plant response rating, Chickweed [9, 15]: 100
Plant response rating, Chickweed [9, 16]: 100
Plant response rating (scale of 0 to 100), Chickweed ([9]; Preemergence, 31 g ai/ha): 95
Plant response rating, Chickweed [9, 17]: 100
Plant response rating, Chickweed [9, 18]: 100
Plant response rating, Chickweed [9, 19]: 100
Plant response rating, Chickweed [9, 20]: 100
Bluegrass plant response rating [10, 14]: 15
Plant response rating, Bluegrass [10, 15]: 35
Plant response rating, Bluegrass [10, 16]: 60
Plant response rating (scale of 0 to 100), Bluegrass ([10]; Preemergence, 31 g ai/ha): 35
Plant response rating, Bluegrass [10, 17]: 45
Plant response rating, Bluegrass [10, 18]: 65
Plant response rating, Bluegrass [10, 19]: 80
Plant response rating, Bluegrass [10, 20]: 25
Russian Thistle plant response rating [11, 14]: 80
Plant response rating, Russian Thistle [11, 15]: 80
Plant response rating, Russian Thistle [11, 16]: 85
Plant response rating (scale of 0 to 100), Russian Thistle ([11]; Preemergence, 31 g ai/ha): 15
Plant response rating, Russian Thistle [11, 17]: 20
Plant response rating, Russian Thistle [11, 18]: 35
Plant response rating, Russian Thistle [11, 19]: 70
Plant response rating, Russian Thistle [11, 20]: 80
Field Poppy plant response rating [12, 14]: 60
Plant response rating, Field Poppy [12, 15]: 85
Plant response rating, Field Poppy [12, 16]: 100
Plant response rating (scale of 0 to 100), Field Poppy ([12]; Preemergence, 31 g ai/ha): 75
Plant response rating, Field Poppy [12, 17]: 100
Plant response rating, Field Poppy [12, 18]: 100
Plant response rating, Field Poppy [12, 19]: 100
Plant response rating, Field Poppy [12, 20]: 75
Foxtail, Green plant response rating [13, 14]: 35
Plant response rating, Foxtail, Green [13, 15]: 65
Plant response rating, Foxtail, Green [13, 16]: 75
Plant response rating (scale of 0 to 100), Foxtail, Green ([13]; Preemergence, 31 g ai/ha): 70
Plant response rating, Foxtail, Green [13, 17]: 80
Plant response rating, Foxtail, Green [13, 18]: 95
Plant response rating, Foxtail, Green [13, 19]: 100
Plant response rating, Foxtail, Green [13, 20]: 40
